Laboratory results from patent US8551516B2, “Administration of non-oral androgenic steroids to women” (Actavis, Inc., priority 1999, dated 2013).

System: SHBG
Assay: Serum SHBG level prior to patch application in the pharmacokinetic study
Assay type: in vivo, human
Settings: mean±SEM, surgically menopausal women on the estrogen
From the text: The structure and proposed functions of SHBG have been described and characterized. See, for example, Rosner et al., Sex Hormone-Binding Globulin Mediates Steroid Hormone Signal Transduction at the Plasma Membrane, J. Steroid Biochem. Mol. Biol. Vol. 69:481-5 (1999); Petra, P. H. The plasma Sex Steroid Binding Protein (SBP or SHBG). A Critical Review of Recent Developments on the Structure, Molecular Biology, and Function, J. Steroid Biochem. Mol. Biol., Vol. 40:735-53 (1991). A variety of methods have been used to quantify the serum concentrations of SHBG, including ammonium sulfate precipitation, gel filtration, equilibrium dialysis, dextran-coated charcoal, and radioimmunoassay. See, for example, Khan et al., Radioimmunoassay for Human Testosterone-Estradiol-Binding Globulin, J. Clinical Endocrinology and Metabolism, Vol. 54:705-710 (1982). […] Serum SHBG levels are known to be elevated in women treated with oral estrogens, estrogen-containing oral contraceptives, clomiphene, tamoxifen, raloxifene, phenytoin, and sodium valproate, as well as in women who are pregnant, hyperthyroid, have chronic liver disease and HIV-infection. See for example, Bond et al., Sex Hormone Binding Globulin in Clinical Perspective, Acta. Obstet. Gynecol. […]

| SMILES | SHBG [nmol/L] |
| --- | --- |
| C[C@]12CC[C@@H]3c4ccc(O)cc4CC[C@H]3[C@@H]1CC[C@@H]2O [estradiol] | 90.8 ± 12.9 |

System: SHBG
Assay: not given
Settings: known from literature (Bond et al. 1987; Miller et al. 1998); cited from earlier work

| SMILES | Serum SHBG levels in women treated |
| --- | --- |
| CCN(CC)CCOc1ccc(C(=C(Cl)c2ccccc2)c2ccccc2)cc1 [clomiphene] | elevated |
| O=C1NC(=O)C(c2ccccc2)(c2ccccc2)N1 [phenytoin] | elevated |
| O=C(c1ccc(OCCN2CCCCC2)cc1)c1c(-c2ccc(O)cc2)sc2cc(O)ccc12 [raloxifene] | elevated |
| CCCC(CCC)C(=O)[O-].[Na+] [sodium valproate] | elevated |
| CC/C(=C(\c1ccccc1)c1ccc(OCCN(C)C)cc1)c1ccccc1 [tamoxifen] | elevated |

Molecular target: T1, sex hormone binding globulin (SHBG) (Homo sapiens, UniProt P04278)
T1 sequence (P04278 30-402): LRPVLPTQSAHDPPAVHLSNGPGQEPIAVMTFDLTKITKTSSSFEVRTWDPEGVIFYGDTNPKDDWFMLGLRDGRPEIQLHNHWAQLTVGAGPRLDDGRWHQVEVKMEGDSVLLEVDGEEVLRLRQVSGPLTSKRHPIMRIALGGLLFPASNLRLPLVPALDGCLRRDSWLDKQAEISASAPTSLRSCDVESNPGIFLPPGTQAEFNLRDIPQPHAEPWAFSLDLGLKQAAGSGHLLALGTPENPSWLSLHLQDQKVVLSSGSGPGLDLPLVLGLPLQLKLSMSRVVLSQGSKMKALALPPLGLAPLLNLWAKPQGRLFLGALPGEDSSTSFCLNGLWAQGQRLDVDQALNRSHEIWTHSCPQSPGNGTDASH
Assay: not given
Settings: adapted from Dunn et al. 1981; human plasma; cited from earlier work

| SMILES | K (binding affinity constant for SHBG) |
| --- | --- |
| CC(=O)[C@@]1(O)CC[C@H]2[C@@H]3CCC4=CC(=O)CC[C@]4(C)[C@H]3CC[C@@]21C [17-hydroxyprogesterone] | 9.9 10^6 Liter/mole |
| C[C@]12CCC(O)C[C@@H]1CC[C@@H]1[C@@H]2CC[C@]2(C)[C@@H](O)CC[C@@H]12 (some centres unmarked) [androstanediol] | 1300 10^6 Liter/mole |
| C[C@]12CCC(=O)C=C1CC[C@@H]1[C@@H]2CC[C@]2(C)C(=O)CC[C@@H]12 [androstenedione] | 29 10^6 Liter/mole |
| C[C@]12CC[C@@H](O)C[C@@H]1CC[C@@H]1[C@@H]2CC[C@]2(C)C(=O)CC[C@@H]12 [androsterone] | 14 10^6 Liter/mole |
| C[C@]12CC[C@H](O)CC1=CC[C@@H]1[C@@H]2CC[C@]2(C)C(=O)CC[C@@H]12 [dehydroepiandrosterone] | 66 10^6 Liter/mole |
| C[C@]12CCC(=O)C[C@@H]1CC[C@@H]1[C@@H]2CC[C@]2(C)[C@@H](O)CC[C@@H]12 [dihydrotestosterone] | 5500 10^6 Liter/mole |
| C[C@]12CC[C@@H]3c4ccc(O)cc4CC[C@H]3[C@@H]1C[C@@H](O)[C@@H]2O [estriol] | 4.3 10^6 Liter/mole |
| CC(=O)[C@H]1CC[C@H]2[C@@H]3CCC4=CC(=O)CC[C@]4(C)[C@H]3CC[C@]12C [progesterone] | 8.8 10^6 Liter/mole |
